molecular target: T1, human Nav1.7 (Homo sapiens, UniProt Q15858); experiment: IonWorks Quattro automated patch-clamp, inactivated state block of Nav1.7; type: cell-based; conditions: channels stably expressed in HEK 293 cells; double-pulse protocol, inactivated state block; read-out: potency for the Nav 1.7 sodium ion channel (IC50, as measured by IonWorks)
T1 construct: expressed in transfected cells; host or cells: HEK 293
Method: Compounds were tested on human Nav1.7 and Nav1.5 channels stably expressed in HEK 293 cells. […] Cells were sealed on a planar substrate using the Population Patch […] (PPC) technology. Electrical access was obtained using both nystatin and amphotericin. A double-pulse protocol was used for the determination of IC50 values for inactivated state block. Nav1.7 and Nav1.5 expressing cells were voltage clamped at −100 mV and −110 mV, respectively. A depolarizing prepulse to −10 mV (Nav1.7) or −30 mV (Nav1.5) for 1000 ms followed by a 10 ms repolarization to −100 mV (Nav1.7) or −110 mV (Nav1.5) was given to generate fractional channel inactivation of 50%, followed by a 10 ms test pulse to −10 mV (Nav1.7) or −30 mV (Nav1.5) to measure peak current in control conditions and after compound addition. The following recording solutions were used (mM). External: 150 NaCl, 2 CaCl2, 5 KCl, 1 Mg Cl2, 10 HEPES, 12 Dextrose; internal: 120 CsF, 30 CsCl, 10 EGTA, 5 HEPES, 5 NaF, 2 MgCl2.
For all electrophysiology experiments, offline analysis was used to determine percent inhibition as a function of drug concentration. IC50 values were determined by fitting to the Hill equation.

T1 sequence (Q15858 whole entry): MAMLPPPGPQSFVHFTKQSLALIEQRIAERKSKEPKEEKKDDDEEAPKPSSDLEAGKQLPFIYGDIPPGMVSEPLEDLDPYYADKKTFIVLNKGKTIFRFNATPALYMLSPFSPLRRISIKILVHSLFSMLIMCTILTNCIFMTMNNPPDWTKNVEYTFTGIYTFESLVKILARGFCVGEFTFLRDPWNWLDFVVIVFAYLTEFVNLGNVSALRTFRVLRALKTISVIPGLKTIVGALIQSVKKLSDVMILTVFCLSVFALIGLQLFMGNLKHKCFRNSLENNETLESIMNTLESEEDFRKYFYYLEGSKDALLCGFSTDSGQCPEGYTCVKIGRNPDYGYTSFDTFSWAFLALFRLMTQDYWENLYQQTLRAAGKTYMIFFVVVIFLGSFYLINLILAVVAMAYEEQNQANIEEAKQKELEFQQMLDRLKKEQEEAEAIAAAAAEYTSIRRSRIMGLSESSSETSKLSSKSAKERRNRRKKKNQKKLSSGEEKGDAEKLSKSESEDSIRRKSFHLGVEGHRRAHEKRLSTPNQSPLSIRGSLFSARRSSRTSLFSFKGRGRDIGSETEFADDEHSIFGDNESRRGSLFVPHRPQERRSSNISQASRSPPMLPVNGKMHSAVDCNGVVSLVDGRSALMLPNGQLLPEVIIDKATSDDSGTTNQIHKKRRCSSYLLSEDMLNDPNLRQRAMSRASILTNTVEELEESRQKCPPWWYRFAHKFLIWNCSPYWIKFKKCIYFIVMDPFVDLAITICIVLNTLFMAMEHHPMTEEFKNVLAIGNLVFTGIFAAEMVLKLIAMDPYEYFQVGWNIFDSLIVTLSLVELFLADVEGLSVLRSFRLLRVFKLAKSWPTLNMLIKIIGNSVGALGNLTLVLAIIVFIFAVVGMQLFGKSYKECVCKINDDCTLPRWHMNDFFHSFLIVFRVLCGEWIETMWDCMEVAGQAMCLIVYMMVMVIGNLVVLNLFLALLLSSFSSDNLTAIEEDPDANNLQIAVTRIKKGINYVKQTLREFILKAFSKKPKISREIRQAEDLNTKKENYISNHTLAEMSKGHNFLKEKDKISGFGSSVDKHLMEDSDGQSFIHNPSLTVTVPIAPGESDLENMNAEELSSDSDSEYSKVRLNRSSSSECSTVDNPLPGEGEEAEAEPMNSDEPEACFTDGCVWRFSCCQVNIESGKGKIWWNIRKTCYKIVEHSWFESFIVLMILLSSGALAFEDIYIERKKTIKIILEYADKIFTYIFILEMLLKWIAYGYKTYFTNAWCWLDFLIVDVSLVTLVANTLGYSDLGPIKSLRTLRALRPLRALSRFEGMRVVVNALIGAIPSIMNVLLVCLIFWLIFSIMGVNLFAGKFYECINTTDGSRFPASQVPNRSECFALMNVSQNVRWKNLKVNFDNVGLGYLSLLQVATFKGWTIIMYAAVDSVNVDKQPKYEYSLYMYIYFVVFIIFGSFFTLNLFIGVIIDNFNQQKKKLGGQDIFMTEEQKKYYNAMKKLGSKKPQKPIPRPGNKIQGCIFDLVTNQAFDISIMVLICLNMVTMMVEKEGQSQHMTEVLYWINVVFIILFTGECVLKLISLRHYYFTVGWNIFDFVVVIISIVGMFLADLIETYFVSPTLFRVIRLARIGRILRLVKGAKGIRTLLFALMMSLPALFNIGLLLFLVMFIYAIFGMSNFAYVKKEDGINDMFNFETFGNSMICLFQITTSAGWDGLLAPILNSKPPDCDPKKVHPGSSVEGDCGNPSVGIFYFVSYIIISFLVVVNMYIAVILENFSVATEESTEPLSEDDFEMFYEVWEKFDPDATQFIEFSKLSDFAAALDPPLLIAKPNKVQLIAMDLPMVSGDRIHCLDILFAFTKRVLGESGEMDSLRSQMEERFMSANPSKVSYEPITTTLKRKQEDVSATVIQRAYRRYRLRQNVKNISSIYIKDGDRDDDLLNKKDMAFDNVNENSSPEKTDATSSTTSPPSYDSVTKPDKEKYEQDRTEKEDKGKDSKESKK

Q: For `O=S(=O)(Nc1nccs1)c1cc(Cl)c(NCCCCNC[C@@H]2C[C@H](C(F)(F)F)CN2)cc1F` [Ex 8-12, 5-chloro-2-fluoro-N-1,3-thiazol-2-yl-4-{[4-({[(2S,4S)-4-(trifluoromethyl)-pyrrolidin-2-yl]methyl}amino)butyl]amino}benzenesulfonamide], which IC50 is on record?
A: Its IC50 is 21 nM.

Q: Which IC50 does the source give for `O=S(=O)(Nc1ncns1)c1cc(Cl)c(NCCCCNC[C@H]2CCN2)cc1F` [Ex 13-02, 4-[(4-{[(2R)-azetidin-2-yl-methyl]-amino}butyl)amino]-5-chloro-2-fluoro-N-1,2,4-thiadiazol-5-yl-benzene-sulfonamide] here?
A: The IC50 was 14 nM.

Q: For `O=S(=O)(Nc1ncns1)c1cc(Cl)c(NCCCCNC[C@@H]2CCN2)cc1F` [Ex 14-04, 4-[(4-{[(2S)-azetidin-2-yl-methyl]-amino}butyl)amino]-5-chloro-2-fluoro-N-1,2,4-thiadiazol-5-ylbenzene-sulfonamide], which IC50 is on record?
A: The IC50 was 14 nM.

Q: `C[C@H](N)CNCCCCNc1cc(F)c(S(=O)(=O)Nc2ncns2)cc1Cl` [Ex 15-05, 4-[(4-{[(2S)-2-aminopropyl]amino}butyl)amino]-5-chloro-2-fluoro-N-1,2,4-thiadiazol-5-ylbenzenesulfonamide] was tested. Which IC50 did it give?
A: The IC50 was 12 nM.

Q: `O=S(=O)(Nc1ncns1)c1cc(Cl)c(NCCCCNC2CNC2)cc1F` [Ex 16-01, 4-{[4-(azetidin-3-ylamino)-butyl]-amino}-5-chloro-2-fluoro-N-1,2,4-thiadiazol-5-ylbenzenesulfonamide] was tested. Which IC50 did it give?
A: Its IC50 is 15 nM.

Q: `O=S(=O)(Nc1ncc(F)s1)c1cc(Br)c(NCCCCNC[C@H]2CCCCN2)cc1F` [Ex 16-04, 5-bromo-2-fluoro-N-(5-fluoro-1,3-thiazol-2-yl)-4-[(4-{[(2R)-piperidin-2-ylmethyl]amino}-butyl]amino]benzene-sulfonamide] was tested. Which IC50 did it give?
A: Its IC50 is 11 nM.

Q: For `C[C@H](CN)NCCCCNc1cc(F)c(S(=O)(=O)Nc2nccs2)cc1Cl` [Ex 16-08, 4-[(4-{[(1R)-2-amino-1-methylethyl]-amino}butyl)-amino]-5-chloro-2-fluoro-N-1,3-thiazol-2-ylbenzenesulfonamide], which IC50 is on record?
A: Its IC50 is 15 nM.

Q: For `O=S(=O)(Nc1ncns1)c1cc(Cl)c(NCCCCNC[C@H]2CCCCN2)cc1F` [Ex 16-15, 5-chloro-2-fluoro-4-[(4-{[(2R)-piperidin-2-yl-methyl]amino}butyl)-amino]-N-1,2,4-thiadiazol-5-yl-benzenesulfonamide], which IC50 is on record?
A: Its IC50 is 5.1 nM.

Q: Which IC50 does the source give for `O=S(=O)(Nc1ncc(F)s1)c1cc(Cl)c(NCCCCNCC[C@H]2CCCN2)cc1F` [Ex 16-18, 5-chloro-2-fluoro-N-(5-fluoro-1,3-thiazol-2-yl)-4-{[4-({2-[(2R)-pyrrolidin-2yl]-ethyl}amino)butyl]-amino} benzenesulfonamide] here?
A: The IC50 was 18 nM.

Q: `O=S(=O)(Nc1ncns1)c1cc(Cl)c(NCCCCN[C@@H]2CCNC2)cc1F` [Ex 16-19, 5-chloro-2-fluoro-4-({4-[(3R)-pyrrolidin-3-ylamino]-butyl}amino)-N-1,2,4-thiadiazol-5-ylbenzene-sulfonamide] was tested. Which IC50 did it give?
A: The IC50 was 11 nM.

Q: For `C[C@H](CCN)NCCCCNc1cc(F)c(S(=O)(=O)Nc2nccs2)cc1Cl` [Ex 16-26, 4-[(4-{[(1R)-3-amino-1-methylpropyl]amino}butyl)amino]-5-chloro-2-fluoro-N-1,3-thiazol-2-ylbenzene-sulfonamide], which IC50 is on record?
A: Its IC50 is 28 nM.

Q: For `C[C@H](CCN)NCCCCNc1cc(F)c(S(=O)(=O)Nc2ncns2)cc1Cl` [Ex 16-29, 4-[(4-{[(1R)-3-amino-1-methylpropyl]amino}butyl)-amino]-5-chloro-2-fluoro-N-1,2,4-thiadiazol-5-yl-benzenesulfonamide], which IC50 is on record?
A: Its IC50 is 56 nM.

Q: `NCCNCCCCNc1cc(F)c(S(=O)(=O)Nc2ncns2)cc1Cl` [Ex 16-33, 4-({4-[(2-aminoethyl)-amino]butyl}amino)-5-chloro-2-fluoro-N-1,2,4-thiadiazol-5-ylbenzene-sulfonamide] was tested. Which IC50 did it give?
A: The IC50 was 12 nM.

Q: `C[C@@H](N)CCNCCCCNc1cc(F)c(S(=O)(=O)Nc2nccs2)cc1Cl` [Ex 16-34, 4-[(4-{[(3R)-3-aminobutyl]-amino}butyl)amino]-5-chloro-2-fluoro-N-1,3-thiazol-2-ylbenzene-sulfonamide] was tested. Which IC50 did it give?
A: The IC50 was 29 nM.

Q: How did the IC50 turn out when `NCCCNCCCCNc1cc(F)c(S(=O)(=O)Nc2ncc(F)s2)cc1Cl` [Ex 16-35, 4-({4[(3-aminopropyl)amino]-butyl}amino)-5-chloro-2-fluoro-N-(5-fluoro-1,3-thiazol-2-yl)benzene-sulfonamide] was run?
A: Its IC50 is 14 nM.

Q: With `O=S(=O)(Nc1ncc(F)s1)c1cc(Br)c(NCCCCN[C@@H]2CCNC2)cc1F` [Ex 16-36, 5-bromo-2-fluoro-N-(5-fluoro-1,3-thiazol-2-yl)-4-({4-[(3R)-pyrrolidin-3-yl-amino]butyl}amino) benzene-sulfonamide] as the compound, how does the IC50 read?
A: Its IC50 is 15 nM.

Q: `O=S(=O)(Nc1nccs1)c1cc(Br)c(NCCCCN[C@@H]2CCNC2)cc1F` [Ex 16-37, 5-bromo-2-fluoro-4-({4-[(3R)-pyrrolidin-3-ylamino]-butyl}amino)-N-1,3-thiazol-2-ylbenzenesulfonamide] was tested. Which IC50 did it give?
A: Its IC50 is 19 nM.

Q: How did the IC50 turn out when `O=S(=O)(Nc1nccs1)c1cc(Cl)c(NCCCCN[C@H]2CCCCNC2)cc1F` [Ex 16-41, (S)-4-{[4-(azepan-3-ylamino)-butyl]amino}-5-chloro-2-fluoro-N-1,3-thiazol-2-yl-benzenesulfonamide] was run?
A: The IC50 was 14 nM.

Q: Which IC50 does the source give for `CNCCNCCCCNc1cc(F)c(S(=O)(=O)Nc2ncc(Cl)s2)cc1Cl` [Ex 16-49, 5-chloro-N-(5-chloro-1,3-thiazol-2-yl)-2-fluoro-4-[(4-{[2-(methylamino)ethyl]-amino}butyl)amino] benzene-sulfonamide] here?
A: Its IC50 is 14 nM.

Q: For `CNCCNCCCCNc1cc(F)c(S(=O)(=O)Nc2nccs2)cc1Br` [Ex 16-50, 5-bromo-2-fluoro-4-[(4-{[2-(methylamino)ethyl]amino}-butyl)amino]-N-1,3-thiazol-2-ylbenzenesulfonamide], which IC50 is on record?
A: The IC50 was 11 nM.

Q: How did the IC50 turn out when `CNCCCNCCCCNc1cc(F)c(S(=O)(=O)Nc2nccs2)cc1Br` [Ex 16-55, 5-bromo-2-fluoro-4-[(4-{[3-(methylamino)propyl]amino}butyl)amino]-N-1,3-thiazol-2-ylbenzenesulfonamide] was run?
A: Its IC50 is 18 nM.

Q: How did the IC50 turn out when `CNCCCNCCCCNc1cc(F)c(S(=O)(=O)Nc2ncc(F)s2)cc1Br` [Ex 16-56, 5-bromo-2-fluoro-N-(5-fluoro-1,3-thiazol-2-yl)-4-[(4-{[3-(methylamino)-propyl]amino}butyl)amino]-benzenesulfonamide] was run?
A: Its IC50 is 12 nM.

Q: Which IC50 does the source give for `O=S(=O)(Nc1ncns1)c1cc(Cl)c(NCCCCNCCCNCCF)cc1F` [Ex 16-58, 5-chloro-2-fluoro-4-{[4-({3-[(2-fluoroethyl)amino]-propyl}amino)butyl]amino}-N-1,2,4-thiadiazol-5-yl-benzenesulfonamide] here?
A: The IC50 was 37 nM.

Q: Which IC50 does the source give for `C[C@H](CN)NCCCCNc1cc(F)c(S(=O)(=O)Nc2ncns2)cc1Cl` [Ex 16-60, 4-[(4-{[(1R)-2-amino-1-methylethyl]amino}butyl)-amino]-5-chloro-2-fluoro-N-1,2,4-thiadiazol-5-yl-benzenesulfonamide] here?
A: The IC50 was 11 nM.

Q: For `CC(C)(CN)NCCCCNc1cc(F)c(S(=O)(=O)Nc2ncc(F)s2)cc1Cl` [Ex 16-61, 4-({4-[(2-amino-1,1-dimethylethyl)amino]butyl}amino)-5-chloro-2-fluoro-N-(5-fluoro-1,3-thiazol-2-yl)benzenesulfonamide], which IC50 is on record?
A: Its IC50 is 21 nM.

Q: With `NC1(CNCCCCNc2cc(F)c(S(=O)(=O)Nc3ncc(F)s3)cc2Cl)CC1` [Ex 16-63, 4-[(4-{[(1-aminocyclopropyl)methyl]amino}butyl)amino]-5-chloro-2-fluoro-N-(5-fluoro-1,3-thiazol-2-yl)benzenesulfonamide] as the compound, how does the IC50 read?
A: The IC50 was 56 nM.

Q: `CN[C@H](C)CNCCCCNc1cc(F)c(S(=O)(=O)Nc2ncc(F)s2)cc1Cl` [Ex 16-65, 5-chloro-2-fluoro-N-(5-fluoro-1,3-thiazol-2-yl)-4-[(4-{[(2R)-2-(methylamino)propyl]amino}butyl)amino] benzenesulfonamide] was tested. Which IC50 did it give?
A: The IC50 was 28 nM.

Q: `C[C@@H](CN)NCCCCNc1cc(F)c(S(=O)(=O)Nc2ncc(F)s2)cc1Cl` [Ex 16-66, 4-[(4-{[(1S)-2-amino-1-methylethyl]amino}butyl)amino]-5-chloro-2-fluoro-N-(5-fluoro-1,3-thiazol-2-yl)benzenesulfonamide] was tested. Which IC50 did it give?
A: The IC50 was 16 nM.

Q: Which IC50 does the source give for `C[C@@H](CN)NCCCCNc1cc(F)c(S(=O)(=O)Nc2ncns2)cc1Cl` [Ex 16-67, 4-[(4-{[(1S)-2-amino-1-methylethyl]amino}butyl)amino]-5-chloro-2-fluoro-N-1,2,4-thiadiazol-5-ylbenzenesulfonamide] here?
A: Its IC50 is 16 nM.

Q: Which IC50 does the source give for `NC1(CNCCCCNc2cc(F)c(S(=O)(=O)Nc3ncc(F)s3)cc2Cl)CCC1` [Ex 16-69, 4-[(4-{[(1-aminocyclobutyl)methyl]amino}butyl)amino]-5-chloro-2-fluoro-N-(5-fluoro-1,3-thiazol-2-yl)benzenesulfonamide] here?
A: Its IC50 is 18 nM.

Q: `N[C@H]1CCC[C@@H]1NCCCCNc1cc(F)c(S(=O)(=O)Nc2nccs2)cc1Cl` [Ex 16-72, 4-[(4-{[(1S,2S)-2-aminocyclopentyl]amino}butyl)amino]-5-chloro-2-fluoro-N-1,3-thiazol-2-ylbenzenesulfonamide] was tested. Which IC50 did it give?
A: The IC50 was 11 nM.

Q: With `O=S(=O)(Nc1ncc(F)s1)c1cc(Cl)c(NCCCCNC[C@H]2CCN2)cc1F` [Ex 16-73, 4-[(4-{[(2R)-azetidin-2-ylmethyl]amino}butyl)amino]-5-chloro-2-fluoro-N-(5-fluoro-1,3-thiazol-2-yl)benzenesulfonamide] as the compound, how does the IC50 read?
A: The IC50 was 19 nM.

Source: patent US10519147B2 (Merck Sharp & Dohme Corp., priority 2015, dated 2019)
